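Tested at 5 concentrations; 48 h exposure; 96-well plates; endpoints linearly interpolated, else capped at highest concentration. TGI: concentration producing complete growth inhibition.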
Tests used:
Assay in all cases: DTP human tumour cell line panel, 48 h
OVCAR-4 ovarian = system: OVCAR-4 ovarian
NCI/ADR-RES ovarian = system: NCI/ADR-RES ovarian
RXF 393 renal = system: RXF 393 renal
SK-OV-3 ovarian = system: SK-OV-3 ovarian
SK-MEL-28 melanoma = system: SK-MEL-28 melanoma
OVCAR-3 ovarian = system: OVCAR-3 ovarian
A549 NSCLC = system: A549 NSCLC
HOP-62 NSCLC = system: HOP-62 NSCLC
ACHN renal = system: ACHN renal
RPMI-8226 leukemia = system: RPMI-8226 leukemia
CAKI-1 renal = system: CAKI-1 renal
A498 renal = system: A498 renal
K-562 leukemia = system: K-562 leukemia
U251 CNS = system: U251 CNS
TK-10 renal = system: TK-10 renal
OVCAR-8 ovarian = system: OVCAR-8 ovarian
HS 578T breast = system: HS 578T breast
HL-60(TB) leukemia = system: HL-60(TB) leukemia
BT-549 breast = system: BT-549 breast

SMILES | TGI (OVCAR-4 ovarian) | TGI (NCI/ADR-RES ovarian) | TGI (RXF 393 renal) | TGI (SK-OV-3 ovarian) | TGI (SK-MEL-28 melanoma) | TGI (OVCAR-3 ovarian) | TGI (A549 NSCLC) | TGI (HOP-62 NSCLC) | TGI (ACHN renal) | TGI (RPMI-8226 leukemia) | TGI (CAKI-1 renal) | TGI (A498 renal) | TGI (K-562 leukemia) | TGI (U251 CNS) | TGI (TK-10 renal) | TGI (OVCAR-8 ovarian) | TGI (HS 578T breast) | TGI (HL-60(TB) leukemia) | TGI (BT-549 breast)
CCCNC(=O)N(C)C(=O)N1N=C(c2ccccc2)C1c1ccccc1 (stereo not drawn) | > 100 µM | > 100 µM | > 100 µM | > 100 µM | > 100 µM | > 100 µM | > 100 µM | > 100 µM | > 100 µM | > 100 µM | > 100 µM | > 100 µM | > 100 µM | > 100 µM | > 100 µM | > 100 µM | – | – | –
Cc1csc(NNC(=O)Nc2ccccc2)n1 | > 100 µM | > 100 µM | > 100 µM | > 100 µM | > 100 µM | – | > 100 µM | > 100 µM | > 100 µM | > 100 µM | > 100 µM | > 100 µM | > 100 µM | > 100 µM | – | > 100 µM | > 100 µM | > 100 µM | –
NC(=O)C(=CNC(=S)Nc1cccc(C(F)(F)F)c1)C(N)=O | > 100 µM | > 100 µM | > 100 µM | > 100 µM | > 100 µM | > 100 µM | > 100 µM | > 100 µM | > 100 µM | > 100 µM | > 100 µM | > 100 µM | > 100 µM | > 100 µM | > 100 µM | > 100 µM | > 100 µM | > 100 µM | –
O=C1CCCc2ccc3c(c21)CC1(Cc2ccccc2C1)C3 | 98.8 µM | > 100 µM | > 100 µM | > 100 µM | – | 98.6 µM | > 100 µM | > 100 µM | 68.9 µM | 48.1 µM | – | > 100 µM | 30 µM | > 100 µM | > 100 µM | > 100 µM | > 100 µM | – | –
O=C(C/C=C/c1ccccc1)c1ccccc1 | – | 33.7 µM | 34 µM | > 100 µM | 53.6 µM | > 100 µM | 26 µM | 73.7 µM | 35.8 µM | 83.5 µM | 31.7 µM | 36 µM | – | 29.9 µM | 65.6 µM | 49.1 µM | 58.6 µM | 66 µM | –
N#Cc1c(N2CCN(c3ccc([N+](=O)[O-])cc3)CC2)[n+](=O)c2ccccc2n1[O-] | > 100 µM | > 100 µM | > 100 µM | > 100 µM | > 100 µM | > 100 µM | > 100 µM | > 100 µM | > 100 µM | > 100 µM | > 100 µM | – | > 100 µM | > 100 µM | > 100 µM | > 100 µM | – | – | > 100 µM
O=c1c2ccccc2[nH]c2c(Cl)cc(Cl)c(N3CCCCC3)c12 | > 100 µM | 83.4 µM | – | > 100 µM | > 100 µM | > 100 µM | > 100 µM | > 100 µM | 65.7 µM | > 100 µM | 97.1 µM | 81 µM | > 10 µM | 62.4 µM | > 100 µM | > 100 µM | – | 74.7 µM | > 100 µM
N#Cc1c(O)c2ccccc2[nH]c1=O | > 100 µM | > 100 µM | > 100 µM | > 100 µM | > 100 µM | > 100 µM | > 100 µM | > 100 µM | > 100 µM | > 100 µM | > 100 µM | > 100 µM | > 100 µM | > 100 µM | > 100 µM | > 100 µM | – | > 100 µM | –
CC1=CCC2CC1NC(=O)CCOCCC(=O)NC2(C)C (stereo not drawn) | > 100 µM | > 100 µM | > 100 µM | > 100 µM | > 100 µM | – | > 100 µM | – | > 100 µM | > 100 µM | > 100 µM | > 100 µM | > 100 µM | > 100 µM | > 100 µM | > 100 µM | – | – | –
COC(=O)C1(C)NCCc2c1[nH]c1ccccc21 (stereo not drawn) | > 100 µM | – | > 100 µM | > 100 µM | > 100 µM | > 100 µM | > 100 µM | > 100 µM | – | > 100 µM | > 100 µM | > 100 µM | > 100 µM | > 100 µM | > 100 µM | > 100 µM | – | – | –
O=C1/C(=C/c2ccc(Cl)cc2)CSC/C1=C\c1ccc(Cl)cc1 | 14.1 µM | > 100 µM | 3.36 µM | 16.5 µM | 5.51 µM | 8.11 µM | 10.1 µM | 16.2 µM | 12.6 µM | 5 µM | 11.8 µM | – | 10.1 µM | 3.04 µM | 13 µM | 13.8 µM | – | 3.69 µM | 4.99 µM
COc1cc(C2c3c(ccc4ccccc34)C(=O)C3CCC(=O)N32)cc(OC)c1O (stereo not drawn) | > 25 µM | > 25 µM | > 25 µM | > 25 µM | > 25 µM | > 25 µM | > 25 µM | > 25 µM | > 25 µM | > 25 µM | – | > 25 µM | > 25 µM | > 25 µM | – | > 25 µM | – | > 25 µM | > 25 µM
O=c1c2c(F)c(F)c(F)c(F)c2sc2nccn12 | 35.8 µM | 93.3 µM | 32 µM | 36 µM | 53.5 µM | 29.8 µM | 36.7 µM | 42.3 µM | 30 µM | 42.4 µM | 33.3 µM | 35.1 µM | 29.4 µM | 29.2 µM | 32.8 µM | 44.8 µM | 76.2 µM | 4.14 µM | –
C=CC1(C)OC2(CCN(C(=O)OCC)CC2)OC1C (stereo not drawn) | > 100 µM | > 100 µM | > 100 µM | > 100 µM | > 100 µM | > 100 µM | > 100 µM | > 100 µM | > 100 µM | > 100 µM | > 100 µM | > 100 µM | > 100 µM | > 100 µM | > 100 µM | > 100 µM | > 100 µM | > 100 µM | –
COC1/C=C/C(C)C(C(C)C(OC)C(C)CCC(=O)C(C)C(CC(=O)O)OC)OC(=O)/C=C/C=C(\C)CC(OC)CC2=CC(=O)O[C@H](C2)C(C)C(OC)CC(OC)/C=C/C(C)C(OC)C1 (stereo partly drawn) | > 4.35 µM | > 4.35 µM | – | > 4.35 µM | 1.25 µM | > 4.35 µM | > 4.35 µM | > 4.35 µM | > 4.35 µM | > 4.35 µM | 0.851 µM | 2.17 µM | > 4.35 µM | > 4.35 µM | 1.66 µM | > 4.35 µM | 0.387 µM | 1.73 µM | –
N#Cc1ccc(C2NN=CC23C(=O)c2ccccc2OC3c2ccccc2)cc1 (stereo not drawn) | > 100 µM | > 100 µM | > 100 µM | > 100 µM | > 100 µM | > 100 µM | > 100 µM | > 100 µM | > 100 µM | 61.4 µM | > 100 µM | > 100 µM | > 100 µM | 55.7 µM | 96.3 µM | > 100 µM | > 100 µM | > 100 µM | –
CC[C@@]1(CCC(=O)NCCc2c[nH]c3ccccc23)CCC(=O)N2CCc3c([nH]c4ccccc34)[C@H]21 | > 100 µM | 33.4 µM | 33.3 µM | > 100 µM | > 100 µM | > 100 µM | > 100 µM | > 100 µM | > 100 µM | 9.59 µM | > 100 µM | > 100 µM | > 100 µM | > 100 µM | > 100 µM | – | – | – | 19.2 µM
[N-]=[N+]=CC(=O)CCC(=O)N(c1ccccc1)c1ccccc1 | – | – | > 10 µM | > 10 µM | > 10 µM | > 10 µM | > 10 µM | > 10 µM | > 10 µM | – | – | > 10 µM | > 10 µM | > 10 µM | > 10 µM | > 10 µM | – | > 10 µM | > 10 µM
CCCCC(=O)Nc1ccc2c(C)cc(-c3ccc(-c4cc(-c5ccc(C)cc5)cc(-c5ccc(-c6cc(C)c7ccc(NC(=O)CCCC)nc7n6)cc5)n4)cc3)nc2n1 | > 100 µM | > 100 µM | – | > 100 µM | > 100 µM | > 100 µM | > 100 µM | > 100 µM | > 100 µM | > 100 µM | > 100 µM | > 100 µM | > 100 µM | > 100 µM | > 100 µM | – | – | – | > 100 µM
COc1cccc(NC(=O)C(=O)C2C=CCS2(=O)=O)c1 (stereo not drawn) | > 100 µM | – | > 100 µM | > 100 µM | > 100 µM | > 100 µM | > 100 µM | > 100 µM | > 100 µM | > 100 µM | > 100 µM | > 100 µM | > 100 µM | > 100 µM | > 100 µM | > 100 µM | – | > 100 µM | –
COC(=O)C1=C(CCC[C@H](C)O[Si](C)(C)C(C)(C)C)NC(=O)N2[C@@H](CCO)CC[C@H]12 | 38.2 µM | 29.1 µM | 27.5 µM | 30.4 µM | 35.5 µM | 27.9 µM | 25.6 µM | 27.7 µM | 30.3 µM | 53.6 µM | 37.9 µM | 31.1 µM | > 100 µM | 29.6 µM | 35 µM | 29.5 µM | – | – | 28.4 µM
COc1ccc(-c2cc(=O)c3c(O)cc(O)cc3o2)c(OC)c1OC | > 100 µM | – | > 100 µM | > 100 µM | > 100 µM | > 100 µM | > 100 µM | > 100 µM | – | > 100 µM | > 100 µM | – | > 100 µM | – | > 100 µM | – | – | > 100 µM | –

Source: PubChem BioAssay (NCI)
